For 2 compounds, EC50, Activity and Ratio results are on record in ChEMBL document CHEMBL1137364, “Synthesis and structure-activity relationships of uracil nucleotide derivatives and analogues as agonists at human P2Y2, P2Y4, and P2Y6 receptors” (J Med Chem, 2006).

For experiment [1], the target named is T1, P2Y purinoceptor 2 (Homo sapiens, UniProt P41231). In words: Agonist activity at human P2Y2 receptor expressed in 1321N1 cells assessed as IP accumulation by SPA. Format: functional, cell-based.
Experiment [2] concerns the target T2, P2Y purinoceptor 6 (Homo sapiens, UniProt Q15077). In words: Agonist activity at human P2Y6 receptor expressed in 1321N1 cells assessed as IP accumulation by SPA at 1 uM. It counts as functional, cell-based.
Target sequence in this assay (Q15077 whole entry): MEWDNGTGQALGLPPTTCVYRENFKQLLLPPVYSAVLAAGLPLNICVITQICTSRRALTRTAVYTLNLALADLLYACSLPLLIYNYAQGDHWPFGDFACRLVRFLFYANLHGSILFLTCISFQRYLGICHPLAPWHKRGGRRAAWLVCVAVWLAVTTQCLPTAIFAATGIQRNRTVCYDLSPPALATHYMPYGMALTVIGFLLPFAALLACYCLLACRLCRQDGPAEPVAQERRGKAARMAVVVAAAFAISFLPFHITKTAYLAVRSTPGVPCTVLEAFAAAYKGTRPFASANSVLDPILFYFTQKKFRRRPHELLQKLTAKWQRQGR
Experiment [3] concerns the target T3, P2Y purinoceptor 4 (Homo sapiens, UniProt P51582). Briefly: Agonist activity at human P2Y4 receptor expressed in 1321N1 cells assessed as IP accumulation by SPA at 1 uM. Format: functional, cell-based.
Target sequence in this assay (P51582 whole entry): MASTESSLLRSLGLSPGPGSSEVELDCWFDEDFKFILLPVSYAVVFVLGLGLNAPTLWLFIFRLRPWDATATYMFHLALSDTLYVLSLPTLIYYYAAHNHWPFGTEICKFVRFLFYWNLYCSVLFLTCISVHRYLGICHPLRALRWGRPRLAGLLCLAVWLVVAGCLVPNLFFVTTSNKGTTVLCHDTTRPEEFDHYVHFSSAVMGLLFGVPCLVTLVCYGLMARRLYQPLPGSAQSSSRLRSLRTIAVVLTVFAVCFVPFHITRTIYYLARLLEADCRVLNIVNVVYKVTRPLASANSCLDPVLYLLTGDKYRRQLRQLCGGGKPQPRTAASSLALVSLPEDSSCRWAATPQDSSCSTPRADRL
For experiment [4], the target named is T2, P2Y purinoceptor 6. Briefly: Antagonist activity at human P2Y6 receptor assessed as inhibition of UDP-induced IP accumulation at 100 uM.
Target sequence in this assay (Q15077 whole entry, looked up): as the sequence (Q15077 whole entry) above
Experiment [5] addresses T1, P2Y purinoceptor 2. In words: Agonist activity at human P2Y2 receptor expressed in 1321N1 cells assessed as IP accumulation by SPA at 100 uM. It counts as functional, cell-based.
Experiment [6] deals with T3, P2Y purinoceptor 4. In words: Antagonist activity at human P2Y4 receptor assessed as inhibition of UTP-induced IP accumulation at 100 uM.
Target sequence in this assay (P51582 whole entry, looked up): as the sequence (P51582 whole entry) above
The target of experiment [7] is T3, P2Y purinoceptor 4. Briefly: Agonist activity at human P2Y4 receptor expressed in 1321N1 cells assessed as IP accumulation by SPA. Format: functional, cell-based.
Target sequence in this assay (P51582 whole entry): as above
Experiment [8] deals with T2, P2Y purinoceptor 6. Briefly: Agonist activity at human P2Y6 receptor expressed in 1321N1 cells assessed as IP accumulation by SPA at 100 uM. Format: functional, cell-based.
Target sequence in this assay (Q15077 whole entry): as the sequence (Q15077 whole entry) above
The target of experiment [9] is T1, P2Y purinoceptor 2. In words: Antagonist activity at human P2Y2 receptor assessed as inhibition of UTP-induced IP accumulation at 100 uM. It counts as functional.
In experiment [10] the target is T1, P2Y purinoceptor 2. In words: Agonist activity at human P2Y2 receptor expressed in 1321N1 cells assessed as IP accumulation by SPA at 1 uM. It counts as functional, cell-based.
Experiment [11] concerns the target T3, P2Y purinoceptor 4. Briefly: Agonist activity at human P2Y4 receptor expressed in 1321N1 cells assessed as IP accumulation by SPA at 100 uM. Format: functional, cell-based.
Target sequence in this assay (P51582 whole entry): as the sequence (P51582 whole entry) above
Experiment [12] addresses T2, P2Y purinoceptor 6. In words: Agonist activity at human P2Y6 receptor expressed in 1321N1 cells assessed as IP accumulation by SPA. Format: functional, cell-based.
Target sequence in this assay (Q15077 whole entry): as the sequence (Q15077 whole entry) above
Experiment [13] has as its target P2Y purinoceptor 6 (Rattus norvegicus, UniProt Q63371). Briefly: Agonist activity at rat P2Y6 receptor assessed as IP accumulation by SPA. It counts as functional.
The species named for experiment [14] is Homo sapiens. Briefly: Selectivity for human P2Y6 over P2Y2.
For experiment [15], the species on record is Homo sapiens. Briefly: Selectivity for human P2Y6 over P2Y4.

The structures appear in SMILES notation. The source made the active and inactive calls. The calls are words filed in the database; no cut-off is given here. Some results are limits rather than exact numbers.

T1 sequence (P41231 whole entry): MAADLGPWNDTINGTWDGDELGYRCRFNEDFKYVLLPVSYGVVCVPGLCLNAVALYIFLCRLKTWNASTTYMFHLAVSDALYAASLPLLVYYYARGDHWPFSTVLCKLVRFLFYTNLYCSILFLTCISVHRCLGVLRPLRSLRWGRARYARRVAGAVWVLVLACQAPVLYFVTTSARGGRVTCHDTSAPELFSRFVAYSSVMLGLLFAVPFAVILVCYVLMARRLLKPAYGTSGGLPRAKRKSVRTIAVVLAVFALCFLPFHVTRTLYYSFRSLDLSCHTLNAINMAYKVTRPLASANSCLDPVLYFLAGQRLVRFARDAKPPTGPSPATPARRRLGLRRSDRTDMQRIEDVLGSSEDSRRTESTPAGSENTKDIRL
Chain of P2Y purinoceptor 6 (Rattus norvegicus, UniProt Q63371) (Q63371 whole entry): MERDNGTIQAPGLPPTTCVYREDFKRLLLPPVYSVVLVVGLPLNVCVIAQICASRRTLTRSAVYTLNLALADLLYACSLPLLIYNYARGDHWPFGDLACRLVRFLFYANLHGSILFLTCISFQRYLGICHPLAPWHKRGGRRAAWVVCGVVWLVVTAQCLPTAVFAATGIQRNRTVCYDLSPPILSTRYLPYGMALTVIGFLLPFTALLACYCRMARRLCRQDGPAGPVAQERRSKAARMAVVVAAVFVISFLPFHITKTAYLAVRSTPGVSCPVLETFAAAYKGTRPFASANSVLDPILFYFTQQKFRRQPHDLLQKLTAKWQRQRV

Regarding `Cc1cc(=O)n([C@@H]2O[C@H](COP(=O)(O)OP(=O)(O)OP(=O)(O)O)[C@@H](O)[C@H]2O)c(=O)[nH]1`, the results for the EC50 in experiment [1], in [7] and in experiment [12] were more than 1000 nM, more than 100000 nM and more than 1000 nM, respectively. Further, the Activity in experiment [2] stood at 0%; in experiment [3], 8%; in experiment [5], 93%; in experiment [8], 72%; in experiment [10], 18%; in experiment [11] it was 29%. Besides, the outcome in [4], in experiment [6] and in experiment [9] was inactive.

`O=c1[nH]c(=O)n([C@@H]2O[C@H](COP(=O)(O)OP(=O)(O)O)[C@@H](O)[C@H]2O)cc1Br`: the concentration giving a half-maximal response (EC50) – broadly, the midpoint of the concentration-response curve – in [1] worked out at 3670 nM; in experiment [13], 130 nM; in experiment [7] it was 7200 nM; in experiment [12], 151 nM. For the same compound, the Ratio was 24 in [14] and 48 in experiment [15].
